Our source for the IC50 values is US20080039437A1, “New Pyridine Analogues III” (ASTRAZENECA AB, priority 2006, published 2008).

The assay deals with T1, P2Y12 receptor (Homo sapiens, UniProt Q9H244).
T1 construct: expressed in transfected cells; host or cells: CHO cells (membranes)
The assay is described as follows: Functional inhibition of 2-Me-S-ADP induced P2Y12 signalling (35S-GTPγS, cell membranes). The class given is biochemical. Particulars: membranes from P2Y12 transfected CHO-cells, EC80 of agonist 2-methyl-thio-adenosine diphosphate, 30° C., 45 min. The procedure: Functional inhibition of the P2Y12 receptor can be measured by in vitro assays using cell membranes from P2Y12 transfected CHO-cells, the methodology is indicated below.
Functional inhibition of 2-Me-S-ADP induced P2Y12 signalling: 5 μg of membranes were diluted in 200 μl of 200 mM NaCl, 1 mM MgCl2, 50 mM HEPES (pH 7.4), 0.01% BSA, 30 μg/ml saponin and 10 μM GDP. To this was added an EC80 concentration of agonist (2-methyl-thio-adenosine diphosphate), the required concentration of test compound and 0.1 μCi ^35S-GTPγS. The reaction was allowed to proceed at 30° C. for 45 min. Samples were then transferred on to GF/B filters using a cell harvester and washed with wash buffer (50 mM Tris (pH 7.4), 5 mM MgCl2, 50 mM NaCl). Filters were then covered with scintillant and counted for the amount of ^35S-GTPγS retained by the filter. Maximum activity was that determined in the presence of the agonist and minimum activity in the absence of the agonist following subtraction of the value determined for non-specific activity. The effect of compounds at various concentrations was plotted according to the equation y=A+((B−A)/(1+((C/x)ˆD))) and IC50 estimated where
A is the bottom plateau of the curve i.e. the final minimum y value
B is the top of the plateau of the curve i.e. the final maximum y value
C is the x value at the middle of the curve. This represents the log EC50 value when A+B=100 […]
In general terms: Binding of GTPγS marks nucleotide exchange on a G protein.

T1 sequence (Q9H244 whole entry): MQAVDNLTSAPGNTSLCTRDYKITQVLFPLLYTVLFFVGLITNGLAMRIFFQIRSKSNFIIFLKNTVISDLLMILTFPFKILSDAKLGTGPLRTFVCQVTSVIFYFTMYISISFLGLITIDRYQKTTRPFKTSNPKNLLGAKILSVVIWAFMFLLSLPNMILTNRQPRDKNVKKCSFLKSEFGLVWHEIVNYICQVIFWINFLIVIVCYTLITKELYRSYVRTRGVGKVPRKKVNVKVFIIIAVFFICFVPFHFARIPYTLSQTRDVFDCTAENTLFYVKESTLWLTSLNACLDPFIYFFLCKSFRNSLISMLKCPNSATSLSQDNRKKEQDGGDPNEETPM

`CCCCS(=O)(=O)NC(=O)C1CCN(c2nc(C(F)F)c(C(=O)OCC)cc2C#N)CC1` [Example 41, Ethyl 6-(4-{[(butylsulfonyl)amino]carbonyl}piperidin-1-yl)-5-cyano-2-(difluoromethyl)nicotinate] had a 50% inhibitory concentration (IC50) of 490 nM. Next, `CCOC(=O)c1cc(C#N)c(N2CC(C(=O)NS(=O)(=O)CC3CCC(C)CC3)C2)nc1CF` (centres unmarked) [Example 74, Ethyl 5-cyano-2-(fluoromethyl)-6-{3-[({[(4-methylcyclohexyl)methyl]sulfonyl}amino)carbonyl]azetidin-1-yl}nicotinate]: 270 nM.

As usually defined, the IC50 is the concentration at which inhibition is half-maximal. Read a high IC50 as weaker potency in that assay.
